In article PMC9595134, “Novel pituitary actions of GnRH in teleost: The link between reproduction and feeding regulation” (Frontiers in Endocrinology, 2022):

Columns and labels:
[1] = system: grass carp pituitary cells; assay: Signal transduction: pathway inhibitors on GnRH-induced anorectic gene mRNA; format: cell-based, grass carp (Ctenopharyngodon idellus); conditions: U73122 10 μM, GF109203X 20 μM, 2-APB 100 μM, MDL12330A 20 μM, H89 20 μM, nifedipine 10 μM, calmidazolium 1 μM, KN62 5 μM; for blockade of GnRH2-induced POMCb, CART2, UTS1, NMBa, NMBb, and LEPR mRNA expression: cotreated with GnRH2, 24 h; for blockade of GnRH3-induced POMCb, CART2, UTS1, NMBa, NMBb, and LEPR mRNA expression: cotreated with GnRH3, 24 h
Description: (§1) The preparation of grass carp pituitary cells was performed as mentioned above. After drug treatment, the total RNA of these cells was isolated by TRIzol reagent and reverse transcribed into cDNA with Hifair™ III 1st Strand cDNA Synthesis Kit. The transcript levels of several anorectic peptides (POMCb, CART2, UTS1, NMBa, NMBb, and Lepr) and reproductive genes (GtHα, LHβ, FSHβ, INHBa, SgII, DRD2) were detected by using an ABI 7500 quantitative real-time PCR (qRT-PCR) system (Biosystems, USA) (information of primers for target genes is listed in Supplementary Table S3 ). In this process, a serial gradient dilution of plasmid DNA of these genes was used as a standard for data calibration. The conditions of qRT-PCR were set to 10 min, 95°C, for pre-degeneration; 15 s, 95°C, for degeneration; 30 s, 55°C–60°C, for annealing; 30 s, 72°C, for extending; and 20 s, 82°C, for signal detection with 40 cycles. Finally, the melt curve obtained through each test was used to verify and check the reliability and specificity of the corresponding qRT-PCR.
To explore the signal transduction for GnRH-induced target gene mRNA expression, the method mentioned above was performed.
(§2) Figure 10 Signal transduction for GnRH2- and GnRH3-induced POMCb, CART2, UTS1, NMBa, NMBb, and LEPR mRNA expression in grass carp pituitary cells. In this experiment, GnRH2 (A) or GnRH3 (B) combined with/without the PLC inhibitor U73122 (10 μM), PKC inhibitor GF109203X (20 μM), or IP3 receptor blocker 2-APB (100 μM) was used to incubate the grass carp pituitary cells for 24 (h) After drug treatment, the total RNA was extracted from the cells for real-time PCR of the respective genes. Data presented are expressed as mean ± SEM, and the different letters represent a significant difference at p < 0.05 between groups (ANOVA followed by a Dunnett test).
as §2, with “11” for “10”, “AC” for “PLC”, “MDL12330A (20 μM) or PKA” for “U73122 (10 μM), PKC”, “H89” for “GF109203X”, “(20” for “(20 μM), or IP3 receptor blocker 2-APB (100”
Figure 12 Signal transduction for GnRH2- and GnRH3-induced POMCb, CART2, UTS1, NMBa, NMBb, and LEPR mRNA expression in grass carp pituitary cells. […] Data presented are expressed as mean ± SEM, and the differences between groups were significant at p < 0.05 by labelling diverse letters (ANOVA followed by a Dunnett test).

[2] = system: grass carp pituitary cells; assay: Signal transduction: pathway inhibitors on GnRH-regulated reproductive gene mRNA; format: cell-based, grass carp (Ctenopharyngodon idellus); conditions: U73122 10 μM, GF109203X 20 μM, 2-APB 100 μM, MDL12330A 20 μM, H89 20 μM, nifedipine 10 μM, calmidazolium 1 μM, KN62 5 μM; for blockade of GnRH2-induced GtHα, LHβ, FSHβ, INHBa, and SgII mRNA expression: cotreated with GnRH2, 24 h; for blockade of GnRH3-induced GtHα, LHβ, FSHβ, INHBa, and SgII mRNA expression: cotreated with GnRH3, 24 h
Description: as §1
as §2, with “In” for “Figure 10 Signal transduction for GnRH2- and GnRH3-induced POMCb, CART2, UTS1, NMBa, NMBb, and LEPR mRNA expression in grass carp pituitary cells. In”
In this experiment, GnRH2 (A) or GnRH3 (B) combined with/without the AC inhibitor MDL12330A (20 μM) or PKA inhibitor H89 (20 μM) was used to incubate the grass carp pituitary cells for 24 (h) After drug treatment, the total RNA was extracted from the cells for real-time PCR of the respective genes. Data presented are expressed as mean ± SEM, and the different letters represent a significant difference at p < 0.05 between groups (ANOVA followed by a Dunnett test).
Data presented are expressed as mean ± SEM, and the different letters represent a significant difference at p < 0.05 between groups (ANOVA followed by a Dunnett test).

[3] = system: DRD2; conditions: teleost; ref [37]; cited from earlier work
[4] = system: grass carp pituitary; conditions: ref [15]; cited from earlier work
Excerpt: As we know, energy metabolism was associated with reproductive behavior in vertebrates ([11]), and adequate energy reserve was essential for breeding ([12]).

Molecule | blockade of GnRH2-induced POMCb, CART2, UTS1, NMBa, NMBb, and LEPR mRNA expression [1] | blockade of GnRH3-induced POMCb, CART2, UTS1, NMBa, NMBb, and LEPR mRNA expression [1] | blockade of GnRH2-induced GtHα, LHβ, FSHβ, INHBa, and SgII mRNA expression [2] | blockade of GnRH3-induced GtHα, LHβ, FSHβ, INHBa, and SgII mRNA expression [2] | effect on LH synthesis via activation of DRD2 [3] | effect on LH secretion and synthesis [4]
NCCOB(c1ccccc1)c1ccccc1 [2-APB] | could block | could block | could block | could block |  | 
CN(C)CCCn1cc(C2=C(c3c[nH]c4ccccc34)C(=O)NC2=O)c2ccccc21 [GF109203X] | could block | could block | could block | could block |  | 
O=S(=O)(NCCNC/C=C/c1ccc(Br)cc1)c1cccc2cnccc12 [H89] | could block | could block | could also be blocked | could also be blocked |  | 
CN([C@@H](Cc1ccc(OS(=O)(=O)c2cccc3cnccc23)cc1)C(=O)N1CCN(c2ccccc2)CC1)S(=O)(=O)c1cccc2cnccc12 [KN62] | could block | could block | could also block | could also block |  | 
Cl.c1ccc(C2CCCC2NC2=NCCCCCCCCCCC2)cc1 (centres unmarked) [MDL12330A] | could block | could block | could also be blocked | could also be blocked |  | 
COc1ccc2c(c1)CC[C@@H]1[C@@H]2CC[C@]2(C)[C@@H](NCCCCCCN3C(=O)C=CC3=O)CC[C@@H]12 [U73122] | could block | could block | could block | could block |  | 
Clc1ccc(C(c2ccc(Cl)cc2)n2cc[n+](CC(OCc3ccc(Cl)cc3Cl)c3ccc(Cl)cc3Cl)c2)cc1 (centres unmarked) [calmidazolium] | could block | could block | could also block | could also block |  | 
NCCc1ccc(O)c(O)c1 [dopamine] |  |  |  |  | inhibited | 
COC(=O)C1=C(C)NC(C)=C(C(=O)OC)C1c1ccccc1[N+](=O)[O-] [nifedipine] | could block | could block |  |  |  | 
prolactin-releasing peptide [PRRP] |  |  |  |  |  | significantly induce
